Laboratory results taken from ChEMBL document CHEMBL5113458, “Structure-activity relationships of 2-pyrimidinecarbohydrazides as utrophin modulators for the potential treatment of Duchenne muscular dystrophy” (Bioorg Med Chem, 2022).
Values after ≈ are worked out from the molar mass of the structure shown.

What was measured:
[1] = Metabolic stability in mouse liver microsomes assessed as half life; format: ADME, Microsome
Utrophin (Mus musculus) = Utrophin (Mus musculus) (UniProt E9Q6R7); assay: Modulation of mouse Utrophin in mouse H2K mdx cells assessed as fold increase in utrophin protein level at 0.1 to 10 uM incubated for 24 hrs by Western blot analysis; format: cell-based; details: filed as modulator, dose 0.1-10 µM
Utrophin (Mus musculus), sequence (E9Q6R7 as listed by the source): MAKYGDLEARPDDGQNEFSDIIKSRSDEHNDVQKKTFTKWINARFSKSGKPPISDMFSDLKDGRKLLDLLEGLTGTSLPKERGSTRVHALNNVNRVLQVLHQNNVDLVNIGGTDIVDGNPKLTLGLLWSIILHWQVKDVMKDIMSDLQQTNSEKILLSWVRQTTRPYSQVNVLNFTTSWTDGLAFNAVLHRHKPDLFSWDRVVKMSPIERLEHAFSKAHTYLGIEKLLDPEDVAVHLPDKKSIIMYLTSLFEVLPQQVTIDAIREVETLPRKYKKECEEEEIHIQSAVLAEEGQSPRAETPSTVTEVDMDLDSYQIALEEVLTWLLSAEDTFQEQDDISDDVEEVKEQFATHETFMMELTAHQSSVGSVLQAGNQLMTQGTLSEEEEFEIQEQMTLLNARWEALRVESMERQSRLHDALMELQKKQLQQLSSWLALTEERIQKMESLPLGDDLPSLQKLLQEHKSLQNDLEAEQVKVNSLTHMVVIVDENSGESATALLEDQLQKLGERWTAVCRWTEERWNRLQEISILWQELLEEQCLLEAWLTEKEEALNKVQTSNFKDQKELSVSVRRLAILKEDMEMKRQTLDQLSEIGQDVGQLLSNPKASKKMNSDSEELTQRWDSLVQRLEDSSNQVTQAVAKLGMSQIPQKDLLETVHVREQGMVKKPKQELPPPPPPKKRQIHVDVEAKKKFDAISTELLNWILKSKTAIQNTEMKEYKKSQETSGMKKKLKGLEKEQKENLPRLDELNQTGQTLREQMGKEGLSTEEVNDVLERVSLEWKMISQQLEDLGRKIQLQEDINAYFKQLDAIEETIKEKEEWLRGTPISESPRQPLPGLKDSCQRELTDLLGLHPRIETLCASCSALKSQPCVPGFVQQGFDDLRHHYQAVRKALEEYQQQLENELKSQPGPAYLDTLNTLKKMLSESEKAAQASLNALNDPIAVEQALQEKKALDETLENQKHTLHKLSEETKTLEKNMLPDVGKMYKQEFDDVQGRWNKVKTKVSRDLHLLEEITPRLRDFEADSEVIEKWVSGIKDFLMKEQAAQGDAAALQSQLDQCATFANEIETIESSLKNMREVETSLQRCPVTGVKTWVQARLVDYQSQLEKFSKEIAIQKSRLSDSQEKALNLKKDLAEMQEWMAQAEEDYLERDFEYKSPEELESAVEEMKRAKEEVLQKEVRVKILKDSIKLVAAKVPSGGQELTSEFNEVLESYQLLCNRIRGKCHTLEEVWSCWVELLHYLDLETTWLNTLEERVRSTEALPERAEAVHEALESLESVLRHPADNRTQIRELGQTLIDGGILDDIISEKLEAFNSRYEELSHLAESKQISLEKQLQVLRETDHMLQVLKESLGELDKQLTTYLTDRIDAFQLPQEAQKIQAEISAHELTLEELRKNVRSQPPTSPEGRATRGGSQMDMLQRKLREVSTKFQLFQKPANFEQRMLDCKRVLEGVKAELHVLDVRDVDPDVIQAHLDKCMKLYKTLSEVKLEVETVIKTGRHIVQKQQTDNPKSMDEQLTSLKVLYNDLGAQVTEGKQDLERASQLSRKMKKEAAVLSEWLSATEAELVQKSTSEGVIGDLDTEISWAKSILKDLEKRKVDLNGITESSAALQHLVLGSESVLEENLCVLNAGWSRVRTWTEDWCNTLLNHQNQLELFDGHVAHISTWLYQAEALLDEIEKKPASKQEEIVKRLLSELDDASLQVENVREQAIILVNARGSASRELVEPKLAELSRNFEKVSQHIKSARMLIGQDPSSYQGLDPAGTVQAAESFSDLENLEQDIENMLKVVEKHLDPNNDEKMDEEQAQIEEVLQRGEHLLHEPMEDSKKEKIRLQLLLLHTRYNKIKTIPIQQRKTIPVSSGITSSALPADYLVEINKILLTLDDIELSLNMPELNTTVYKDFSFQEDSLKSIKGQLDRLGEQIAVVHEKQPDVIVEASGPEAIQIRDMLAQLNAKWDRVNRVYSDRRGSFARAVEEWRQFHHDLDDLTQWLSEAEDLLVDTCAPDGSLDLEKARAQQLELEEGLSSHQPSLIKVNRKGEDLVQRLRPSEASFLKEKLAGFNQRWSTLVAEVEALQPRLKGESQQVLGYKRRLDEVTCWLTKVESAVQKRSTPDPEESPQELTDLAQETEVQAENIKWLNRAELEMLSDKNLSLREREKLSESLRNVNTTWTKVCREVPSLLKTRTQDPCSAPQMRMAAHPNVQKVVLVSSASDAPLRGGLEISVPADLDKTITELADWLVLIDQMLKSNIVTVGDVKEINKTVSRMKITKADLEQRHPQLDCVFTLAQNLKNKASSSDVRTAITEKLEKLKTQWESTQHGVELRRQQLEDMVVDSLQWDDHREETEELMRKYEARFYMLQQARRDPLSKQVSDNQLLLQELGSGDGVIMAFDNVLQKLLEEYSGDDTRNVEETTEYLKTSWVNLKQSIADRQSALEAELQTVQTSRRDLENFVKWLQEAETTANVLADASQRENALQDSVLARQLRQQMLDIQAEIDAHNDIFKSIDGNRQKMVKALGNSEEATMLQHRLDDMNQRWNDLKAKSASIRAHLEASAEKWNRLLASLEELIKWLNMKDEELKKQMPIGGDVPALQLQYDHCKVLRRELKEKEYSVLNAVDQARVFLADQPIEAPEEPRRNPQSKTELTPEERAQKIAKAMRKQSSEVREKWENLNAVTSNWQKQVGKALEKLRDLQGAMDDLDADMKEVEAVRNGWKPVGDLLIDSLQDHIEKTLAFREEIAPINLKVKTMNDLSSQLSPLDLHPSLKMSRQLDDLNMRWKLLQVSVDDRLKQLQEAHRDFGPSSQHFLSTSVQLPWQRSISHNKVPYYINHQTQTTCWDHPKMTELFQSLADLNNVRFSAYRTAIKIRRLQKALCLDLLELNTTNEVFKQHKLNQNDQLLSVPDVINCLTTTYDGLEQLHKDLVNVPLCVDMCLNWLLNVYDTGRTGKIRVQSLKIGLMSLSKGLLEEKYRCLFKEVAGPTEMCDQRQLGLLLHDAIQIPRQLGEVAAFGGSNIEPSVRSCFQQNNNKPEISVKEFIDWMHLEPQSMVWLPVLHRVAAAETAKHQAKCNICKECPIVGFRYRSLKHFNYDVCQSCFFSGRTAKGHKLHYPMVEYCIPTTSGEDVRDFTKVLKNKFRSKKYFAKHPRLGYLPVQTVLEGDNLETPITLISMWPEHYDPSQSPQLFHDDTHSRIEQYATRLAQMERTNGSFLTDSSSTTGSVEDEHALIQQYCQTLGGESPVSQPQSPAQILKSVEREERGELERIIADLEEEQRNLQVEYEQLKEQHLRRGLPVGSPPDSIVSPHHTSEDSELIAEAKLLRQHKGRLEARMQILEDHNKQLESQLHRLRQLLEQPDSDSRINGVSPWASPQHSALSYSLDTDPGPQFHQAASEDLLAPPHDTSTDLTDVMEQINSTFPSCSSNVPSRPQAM

[2] = Metabolic stability in mouse hepatocytes assessed as intrinsic clearance per 10^6 cells; format: ADME, cell-based, Hepatocyte; details: read-out: CLH
[3] = Metabolic stability in mouse hepatocytes assessed as half life; format: ADME, cell-based, Hepatocyte
[4] = Semi-thermodynamic solubility of compound at pH 7.4; format: physicochemical; details: buffer, read-out: Therm_solubility
[5] = Metabolic stability in mouse liver microsomes assessed as intrinsic clearance per mg protein; format: ADME, Microsome; details: read-out: CLH

half-life [1]: 7.57 h
FC (Utrophin (Mus musculus)): 2.5
hepatocyte CLint [2]: 13 µL/min/1e6 cells
half-life [3]: 1.77 h
solubility thermodynamic [4]: 200 µM (≈ 71.9 µg/mL)
microsomal CLint [5]: 1.53 µL/min/mg
Structure (SMILES): NNC(=O)c1nc(-c2ccccc2)cc(-c2ccc(C(F)(F)F)nc2)n1
